Patent US7407760B2 (priority 2003, dated 2008)
Read-outs that look alike come from different tables or passages of the source.

What was measured:
[1] = target: Syrian hamster Sc237 PrP27-30 / immunopurified hamster PrP^C (Mesocricetus auratus, UniProt P04273); assay type: biochemical
Hamster Sc237 PrP^Sc = Hamster Sc237 PrP^Sc (Mesocricetus auratus, UniProt P04273); assay type: biochemical
PrP^Sc [2] = target: T1, PrP^Sc (Mesocricetus auratus, UniProt P04273); assay type: biochemical, hamster
PrP^Sc [3] = target: T1, PrP^Sc; assay type: biochemical, hamster; conditions: for effect of chelating compounds on PrP^Sc amplification: no metal added; for IC50: read-out: IC50 of inhibition of PrP^Sc amplification; for effect on inhibition by CuCl2, added prior to CuCl2: 4 mM EDTA or 50 mM imidazole prior to 1 μM CuCl2; for effect on inhibition by CuCl2, added shortly after CuCl2: after 1 μM CuCl2
PrP^Sc [4] = target: T1, PrP^Sc
PrP^C/PrP^Sc binding = PrP^C/PrP^Sc binding (Mesocricetus auratus, UniProt P04273)
Sequence of PrP^C/PrP^Sc binding (P04273 23-231 limits assumed): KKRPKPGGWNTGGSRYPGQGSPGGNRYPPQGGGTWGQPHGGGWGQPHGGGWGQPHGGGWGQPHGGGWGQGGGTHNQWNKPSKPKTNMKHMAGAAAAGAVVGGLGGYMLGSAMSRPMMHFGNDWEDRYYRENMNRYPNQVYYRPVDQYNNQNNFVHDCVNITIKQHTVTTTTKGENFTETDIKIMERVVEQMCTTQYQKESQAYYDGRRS

PrP^C = PrP^C (Mesocricetus auratus, UniProt P04273)
Sequence of PrP^C (P04273 23-231 limits assumed): as above

PrP^Sc [5] = target: T1, PrP^Sc; assay type: biochemical, hamster; remark: listed apart in the source

T1 sequence (P04273 23-231 limits assumed): as above
Sequence of Hamster Sc237 PrP^Sc (P04273 23-231 limits assumed): as above
Sequence of Syrian hamster Sc237 PrP27-30 / immunopurified hamster PrP^C (P04273 23-231 limits assumed): as above

Sodium pentosan polysulfate [pentosan sulfate]
stimulation of PrP^Sc amplification [1]: stimulated PrP^Sc amplification only moderately

Nc1nc2c(ncn2[C@@H]2O[C@H](CO)[C@H]3OP(=O)(O)O[C@H]32)c(=O)[nH]1 [cyclic 2′,3′-GMP, 2′,3′-cyclic guanosine monophosphate]
inhibition of PrP^Sc amplification by RNase end-product nucleotides (Hamster Sc237 PrP^Sc): Neither of these nucleotides inhibited PrP^Sc amplification

apyrase
effect of added enzyme on PrP^Sc amplification (Hamster Sc237 PrP^Sc): no effect

Nc1ccn([C@@H]2O[C@H](CO)[C@@H](OP(=O)(O)O)[C@H]2O)c(=O)n1 [3′-cytidine monophosphate]
inhibition of PrP^Sc amplification by RNase end-product nucleotides (Hamster Sc237 PrP^Sc; concentrations up to 1 mM): Neither of these nucleotides inhibited PrP^Sc amplification

polyglutamic acid [polyglutamate]
level of stimulation compared with control stimulation by total hamster RNA ([1]; purified substrate): less than the level of control stimulation | reconstitution of PrP^Sc amplification (PrP^Sc [2]; benzonase-pretreated normal brain homogenate): failed to reconstitute PrP^Sc amplification

Cc1ccc2ccc3ccc(C)nc3c2n1 [neocuproine]
effect of chelating compounds on PrP^Sc amplification (PrP^Sc [3]): not influenced

heparan sulfate
stimulation of PrP^Sc amplification in the presence of copper [1]: No apparent stimulation | stimulation of PrP^Sc amplification using purified substrate [1]: no effect

heparan sulfate proteoglycan
stimulation of PrP^Sc amplification [1]: stimulated PrP^Sc amplification only moderately | reconstitution of PrP^Sc amplification (PrP^Sc [2]): failed to reconstitute PrP^Sc amplification

glycogen
stimulation of PrP^Sc amplification using purified substrate [1]: did not stimulate the formation of PrP^Sc

polyadenylic acid [poly(A)]
propagation of PrP^Sc conformation in serial PMCA (PrP^Sc [4]): stimulated the propagation process | concentration at which PrP^Sc amplification was stimulated [1]: 1 µg/mL | threshold size required for stimulation of PrP^Sc amplification [1]: ~300 bases | reconstitution of PrP^Sc amplification (PrP^Sc [2]): failed to reconstitute PrP^Sc amplification

[Cl][Cu][Cl] [CuCl2]
PrP^C/PrP^Sc binding, ratio of PrP^C to PrP27-30 in the pellet (PrP^C/PrP^Sc binding): 0.46 | quantity or protease-resistance of input PrP^C or PrP^Sc molecules by themselves (PrP^C): did not affect the quantity or protease-resistance | IC50 (PrP^Sc [3]): ~1 µM

heparinase III
effect of added enzyme on PrP^Sc amplification (Hamster Sc237 PrP^Sc): no effect

poly(U)
stimulation of PrP^Sc amplification using purified substrate [1]: potently stimulated PrP^Sc amplification

DNase
effect of added enzyme on PrP^Sc amplification (Hamster Sc237 PrP^Sc): did not decrease PrP^Sc amplification

poly(C)
stimulation of PrP^Sc amplification using purified substrate [1]: failed to stimulate PrP^Sc amplification at all concentrations tested

[Cl][Mn][Cl] [MnCl2]
effect of divalent metal compound on PrP^Sc amplification (PrP^Sc [3]): neither MnCl2 nor CoCl2 affected PrP^Sc amplification | effect of pre-addition on CuCl2-mediated inhibition of PrP^Sc amplification (PrP^Sc [3]): did not influence the potency of CuCl2-mediated inhibition

c1c[nH]cn1 [imidazole]
effect on PrP^Sc amplification of preparation “X” (PrP^Sc [5]; 5 mM): restored PrP^Sc amplification | effect on PrP^Sc amplification of preparation “X” (PrP^Sc [5]; 50 mM): restored the ability of this preparation to serve as a substrate | effect on PrP^Sc amplification of preparation “X” (PrP^Sc [5]; 250 mM): inhibited PrP^Sc amplification | effect on inhibition by CuCl2, added prior to CuCl2 (PrP^Sc [3]): prevented inhibition of PrP^Sc amplification | effect on inhibition by CuCl2, added shortly after CuCl2 (PrP^Sc [3]): failed to rescue PrP^Sc amplification

O=C(O)CN(CCN(CC(=O)O)CC(=O)O)CC(=O)O [EDTA]
effect on inhibition by CuCl2, added prior to CuCl2 (PrP^Sc [3]): prevented inhibition of PrP^Sc amplification | effect on inhibition by CuCl2, added shortly after CuCl2 (PrP^Sc [3]): failed to rescue PrP^Sc amplification | effect of chelating compounds on PrP^Sc amplification (PrP^Sc [3]): not influenced

[Cl-].[Cl-].[Zn+2] [ZnCl2]
IC50 (PrP^Sc [3]): ~10 µM
